Results on five compounds are retold here after patent publication US4398029A, “Quinoline carboxylic acid derivatives and process for the preparation” (Kyorin Seiyaku Kabushiki Kaisha, priority 1981, dated 1983).

In brackets after ≈: the same amount, converted by molar mass. Where two headings read alike, the source gives them in different places.

For one assay, the system named is gram-negative bacteria. Particulars: prior art statement; cited from earlier work.
The test system of the next assay is Pseudomonas aeruginosa. Particulars: prior art statement; cited from earlier work.
The next assay deals with gram-positive bacteria. As to conditions: prior art statement; cited from earlier work.
Another assay concerns E. coli ATCC 10536. The assay can be described thus: Antibacterial activity (MIC), standard agar dilution streak method. Type of assay: cell-based, Escherichia coli. Particulars: Escherichia coli, ATCC10536, read-out: Minimum inhibitory concentration. How it is done:
(§1) The antibacterial activities of the compounds of the present invention were assayed by the standard agar dilution streak method against Gram-positive and Gram-negative bacteria [Chemotherapy, 22, 1126 (1974)].

Another assay has as its system P. aeruginosa IFO 12689. Described as above. The assay is classed as cell-based, Pseudomonas aeruginosa. Particulars: Pseudomonas aeruginosa, IFO12689, P. aeruginosa IFO 12689; read-out: Minimum inhibitory concentration. How it is done: as §1
The subject of assay [1] is Serratia marcescens IID 618. Described as above. The assay is classed as cell-based. As to conditions: read-out: Minimum inhibitory concentration. How it is done:
as §1

Assay [2] relates to Yersinia enterocolitica IID 981. The description is as above. The assay is classed as cell-based. Particulars: read-out: Minimum inhibitory concentration. How it is done:
as §1

The test system of assay [3] is Citrobacter freundii IID 976. The description is as above. The assay is classed as cell-based. As to conditions: read-out: Minimum inhibitory concentration. As to the method: as §1
The test system of the next assay is S. epidermidis IID 866. Described as above. Type of assay: cell-based. Particulars: Staphylococcus epidermidis, IID866, read-out: Minimum inhibitory concentration. As to the method: as §1
Assay [4] concerns Alcaligenes faecalis 0104002. Described as above. Type of assay: cell-based. As to conditions: read-out: Minimum inhibitory concentration. How it is done:
as §1

Assay [5] deals with Klebsiella pneumoniae IFO 3512. Described as above. As to conditions: read-out: Minimum inhibitory concentration. Type of assay: cell-based. As to the method:
as §1

In another assay the test system is Proteus vulgaris 3167. Described as above. As to conditions: read-out: Minimum inhibitory concentration. Type of assay: cell-based. As to the method:
as §1

Assay [6] has as its system Bacillus subtilis PCI 219. The description is as above. Type of assay: cell-based. As to conditions: PCI219; Bacillus subtilis PCI 219; read-out: Minimum inhibitory concentration. How it is done:
as §1

A further assay deals with P. mirabilis IID 994. The assay is described as above. As to conditions: Proteus mirabilis, IID994; P. mirabilis IID 994; read-out: Minimum inhibitory concentration. The assay is classed as cell-based. As to the method:
as §1

The subject of assay [7] is Acinetobacter anitratus IID 876. The description is as above. The assay is classed as cell-based. Particulars: Acinetobacter calcoaceticus, IID876, read-out: Minimum inhibitory concentration. As to the method:
as §1

In assay [8] the test system is Enterobacter cloacae IID 977. Described as above. Type of assay: cell-based. As to conditions: read-out: Minimum inhibitory concentration. How it is done: as §1
A further assay deals with P. morganii IID 602. The description is as above. The assay is classed as cell-based. As to conditions: Morganella morganii, IID602, P. morganii IID 602; read-out: Minimum inhibitory concentration. How it is done:
as §1

The subject of assay [9] is Pseudomonas aeruginosa V-1. The assay is described as above. The assay is classed as cell-based. Particulars: read-out: Minimum inhibitory concentration. As to the method:
as §1

The test system of assay [10] is Salmonella enteritidis IID 604. The description is as above. The assay is classed as cell-based. As to conditions: Salmonella enterica; Salmonella enteritidis IID 604; read-out: Minimum inhibitory concentration. How it is done:
as §1

The subject of assay [11] is Staphylococcus aureus 209 p. Described as above. The assay is classed as cell-based. Particulars: Staphylococcus aureus 209 p; read-out: Minimum inhibitory concentration. As to the method:
as §1

Assay [12] concerns Escherichia coli NIHJ JC-2. Described as above. As to conditions: read-out: Minimum inhibitory concentration. The assay is classed as cell-based. As to the method: as §1
A further assay has as its system Shigella sonnei IID 969. The assay can be described thus: microbe, parasite or virus in culture. Particulars: Shigella sonnei. Type of assay: cell-based. As to the method: as §1
Another assay deals with S. aureus Terajima. The assay can be described thus: Antibacterial activity (MIC), standard agar dilution streak method. The assay is classed as cell-based, Staphylococcus aureus. Particulars: Staphylococcus aureus; S. aureus Terajima; read-out: Minimum inhibitory concentration. How it is done:
as §1

As to `CCn1cc(C(=O)O)c(=O)c2ccc(C)nc21` [nalidixic acid], in the assay with gram-negative bacteria, the “effectiveness in the therapy of infections due to gram-negative bacteria” value (“effectiveness in the therapy” for short) is listed as “highly effective”. In addition, in the assay with Pseudomonas aeruginosa, the “activities against Pseudomonas aeruginosa” value is on record as “weak activities”. Further, in the assay with gram-positive bacteria, the “activities against most gram-positive bacteria” value is given as “weak activities”.
Take `CCn1cc(C(=O)O)c(=O)c2cnc(N3CCCC3)nc21` [piromidic acid]: the “effectiveness in the therapy” value in the assay with gram-negative bacteria was “highly effective”. Besides, the “activities against Pseudomonas aeruginosa” value in the assay on Pseudomonas aeruginosa is listed as “weak activities”. Also, the “activities against most gram-positive bacteria” value with gram-positive bacteria is recorded as “weak activities”.
As to `CCCn1cc(C(=O)O)c(=O)c2cc(F)c(N3CCNCC3)c(F)c21.Cl` [Example 2, 6,8-Difluoro-1,4-dihydro-4-oxo-7-(1-piperazinyl)-1-n-propylquinoline-3-carboxylic acid hydrochloride], the MIC in the assay with E. coli ATCC 10536 was 0.2 µg/mL; in the assay with P. aeruginosa IFO 12689, 6.25 µg/mL; in assay [1] (IID618, Serratia marcescens IID 618), 0.39 µg/mL; in [2] (IID981, Yersinia enterocolitica IID 981), 0.39 µg/mL; in assay [3] (IID976, Citrobacter freundii IID 976), 0.2 µg/mL; in the assay with S. epidermidis IID 866, 3.13 µg/mL. The MIC is 1.56 µg/mL in assay [4] (Alcaligenes faecalis 0104002); 0.1 µg/mL in assay [5] (IFO3512, Klebsiella pneumoniae IFO 3512); no more than 0.05 µg/mL in the assay on Proteus vulgaris 3167 (Proteus vulgaris 3167); 0.2 µg/mL in assay [6]; 0.1 µg/mL in the assay on P. mirabilis IID 994; 1.56 µg/mL in [7]. Also, the MIC in assay [8] (IID977, Enterobacter cloacae IID 977) was 0.78 µg/mL; with P. morganii IID 602, 0.39 µg/mL; in [9] (Pseudomonas aeruginosa, V1, Pseudomonas aeruginosa V-1), 12.5 µg/mL; in assay [10], 0.2 µg/mL; in assay [11], 1.56 µg/mL; in assay [12] (NIHJJC2, Escherichia coli NIHJ JC-2) it was no more than 0.05 µg/mL. Further, the MIC in the assay with Shigella sonnei IID 969 (IID969, read-out: Minimum inhibitory concentration) worked out at 0.1 µg/mL; in the assay with S. aureus Terajima, 3.13 µg/mL.
As to `CCn1cc(C(=O)O)c(=O)c2cc(F)c(N3CCCC3)c(F)c21` [Example 11, 1-Ethyl-6,8-difluoro-1,4-dihydro-4-oxo-7-(1-pyrrolidinyl)quinoline-3-carboxylic acid], the MIC in the assay on E. coli ATCC 10536 is 0.2 µg/mL (≈ 0.621 µM); with P. aeruginosa IFO 12689, 6.25 µg/mL (≈ 19.4 µM); in assay [1] (Serratia marcescens, IID618, Serratia marcescens IID 618) it was 1.56 µg/mL (≈ 4.84 µM); in assay [2] (Yersinia enterocolitica, IID981, Yersinia enterocolitica IID 981), 0.39 µg/mL (≈ 1.21 µM); in assay [3] (Citrobacter freundii, IID976, Citrobacter freundii IID 976), 0.39 µg/mL (≈ 1.21 µM); in the assay on S. epidermidis IID 866 it was 0.2 µg/mL (≈ 0.621 µM). The MIC in [4] (Alcaligenes faecalis, 0104002, Alcaligenes faecalis 0104002) was 0.39 µg/mL (≈ 1.21 µM); in [5] (Klebsiella pneumoniae, IFO3512, Klebsiella pneumoniae IFO 3512) it was no more than 0.05 µg/mL; in the assay on Proteus vulgaris 3167 (Proteus vulgaris, 3167, Proteus vulgaris 3167), no more than 0.05 µg/mL; in [6], no more than 0.05 µg/mL; in the assay with P. mirabilis IID 994 it was 0.1 µg/mL (≈ 0.31 µM); in assay [7], 0.39 µg/mL (≈ 1.21 µM). Also, the MIC in [8] (Enterobacter cloacae, IID977, Enterobacter cloacae IID 977) is 1.56 µg/mL (≈ 4.84 µM); with P. morganii IID 602 it was 0.39 µg/mL (≈ 1.21 µM); in [9] (V1, Pseudomonas aeruginosa V-1) it was 6.25 µg/mL (≈ 19.4 µM); in [10], 1.56 µg/mL (≈ 4.84 µM); in assay [11] it was 0.1 µg/mL (≈ 0.31 µM); in assay [12] (Escherichia coli, NIHJJC2, Escherichia coli NIHJ JC-2), 0.2 µg/mL (≈ 0.621 µM). Besides, the MIC was 0.2 µg/mL (≈ 0.621 µM) in the assay on Shigella sonnei IID 969 (IID969, Shigella sonnei IID 969, read-out: Minimum inhibitory concentration) and 0.1 µg/mL (≈ 0.31 µM) in the assay with S. aureus Terajima.
Take `CCn1cc(C(=O)O)c(=O)c2cnc(N3CCNCC3)nc21` [pipemidic acid]: the “effectiveness in the therapy” value in the assay on gram-negative bacteria is reported as “highly effective”. Besides, in the assay with Pseudomonas aeruginosa, the “activities against Pseudomonas aeruginosa” value was “weak activities”. Also, in the assay with gram-positive bacteria, the “activities against most gram-positive bacteria” value is “weak activities”.
